Data reported in US8242280B2, “Fused ring heterocycle kinase modulators” (SGX Pharmaceuticals, Inc., priority 2007, dated 2012).
pIC50: −log10 of the molar value.

Key:
[1] = biological target: T1, unphosphorylated T315I Abl kinase domain (Mus musculus, UniProt P00520, T315I); assay: c-Abl T315I 0P bioassay (pyruvate kinase/lactate dehydrogenase coupled enzyme assay); type: biochemical; settings: zero phosphorylation state (0P), 10 μM ATP, read-out: AbI T315I 0P IC50
T1 construct: purified and unphosphorylated T315I Abl kinase domain; made in house; host or cells: E. coli BL21(DE3) (Codon+RIL or pSA0145 strain)
T1 sequence (P00520 242-493 T315I limits assumed): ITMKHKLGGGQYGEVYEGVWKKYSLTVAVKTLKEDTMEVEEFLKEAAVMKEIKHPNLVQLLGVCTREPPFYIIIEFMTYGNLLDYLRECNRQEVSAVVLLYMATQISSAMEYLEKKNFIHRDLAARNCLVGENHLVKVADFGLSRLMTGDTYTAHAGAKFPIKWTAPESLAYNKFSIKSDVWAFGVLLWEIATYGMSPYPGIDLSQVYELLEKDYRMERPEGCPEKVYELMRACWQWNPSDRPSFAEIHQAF

Ba/F3 cells, ABL1 T315I = Ba/F3 cells, ABL1 T315I (Homo sapiens, UniProt P00519, T315I, cells depend on it); assay: 96-well XTT cell survival assay, Ba/F3 ABL1 T315I; type: cell-based; settings: 72 hours, read-out: ABL1 T315I XTT [Ba/F3] IC50
Method in brief: (§1)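 Ba/F3 cells carrying wild-type or T315I ABL1 were seeded at 5000-8000 per well with graded compound concentrations in duplicate and grown 72 hours at 37° C. Survival was read by XTT/PMS reduction after a further 2-6 h, as absorbance at 405 nm with 650 nm background correction.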

Ba/F3 cells, ABL1 WT = Ba/F3 cells, ABL1 WT (Homo sapiens, UniProt P00519); assay: 96-well XTT cell survival assay, Ba/F3 ABL1 WT; type: cell-based; settings: 72 hours, read-out: ABL1 WT XTT [Ba/F3] IC50
Method in brief: as §1

| SMILES | pIC50 [1] | GI50 (Ba/F3 cells, ABL1 T315I) [µM] | GI50 (Ba/F3 cells, ABL1 WT) [µM] |
| --- | --- | --- | --- |
| CN(C)C(=O)C(O)c1cncc(-c2cnc3[nH]cc(-c4ccc(F)cc4)c3c2)c1 (stereo not drawn) | > 7.30 | > 1 | > 1 |
| COc1ccccc1-c1c[nH]c2ncc(-c3cc(C(C#N)C(=O)N(C)C)ncn3)cc12 (stereo not drawn) | < 6.30 | > 1 | > 1 |
| COc1ccccc1-c1n[nH]c2ncc(-c3cccc(C(O)C(=O)NCCN(C)C)c3)cc12 (stereo not drawn) | > 7.30 | > 1 | < 1 |
| CN(C)C(=O)C(O)c1cncc(-c2cnc3[nH]cc(-c4ccc(C(N)=O)cc4)c3c2)c1 (stereo not drawn) | > 7.30 | > 1 | > 1 |
| CCN(CC)CCN(CC)C(=O)C(O)c1cccc(-c2cnc3[nH]nc(-c4ccccc4OC)c3c2)c1 (stereo not drawn) | > 7.30 | < 1 | < 1 |
| CN(C)C(=O)C(O)c1cncc(-c2cnc3[nH]cc(-c4cccc(C(F)(F)F)c4)c3c2)c1 (stereo not drawn) | > 7.30 | > 1 | > 1 |
| COc1ccccc1-c1n[nH]c2ncc(-c3cccc(C(N)C(=O)N(C)C)c3)cc12 (stereo not drawn) | > 7.30 | < 1 | < 1 |
| CN(C)C(=O)C(O)c1cncc(-c2cnc3[nH]cc(-c4ccno4)c3c2)c1 (stereo not drawn) | > 7.30 | > 1 | > 1 |
| CN(C)C(=O)C(O)c1cncc(-c2cnc3[nH]cc(-c4ccn[nH]4)c3c2)c1 (stereo not drawn) | > 7.30 | > 1 | > 1 |
| COc1ccccc1-c1n[nH]c2ncc(-c3cccc(C(O)C(=O)N(C)CCN(C)C)c3)cc12 (stereo not drawn) | > 7.30 | < 1 | < 1 |
| COc1ccccc1-c1n[nH]c2ncc(-c3cccc(C(O)C(=O)N(C)CCNC(C)(C)C)c3)cc12 (stereo not drawn) | > 7.30 | < 1 | < 1 |

Continued, in another order:

| pIC50 [1] | SMILES | GI50 (Ba/F3 cells, ABL1 T315I) [µM] | GI50 (Ba/F3 cells, ABL1 WT) [µM] |
| --- | --- | --- | --- |
| > 7.30 | COc1ccccc1-c1c[nH]c2ncc(-c3cncc(C(O)C(=O)N(C)C(C)C)c3)cc12 (stereo not drawn) | < 1 | > 1 |
| 6.30 to 7.30 | COc1ccccc1-c1c[nH]c2ncc(-c3cccc(C(CC(=O)N4CCC[C@@H]4CO)N4CCS(=O)(=O)CC4)c3)cc12 (stereo partly drawn) | > 1 | > 1 |
| > 7.30 | CNCCN(C)C(=O)C(N)c1cccc(-c2cnc3[nH]cc(-c4ccccc4OC)c3c2)c1 (stereo not drawn) | > 1 | > 1 |
| > 7.30 | COc1ccccc1-c1n[nH]c2ncc(-c3cccc(C(C)(O)C(=O)N4CC(O)C4)c3)cc12 (stereo not drawn) | > 1 | > 1 |
| > 7.30 | COc1ccccc1-c1c[nH]c2ncc(-c3cncc(C(O)C(=O)N(C)Cc4ccnn4C)c3)cc12 (stereo not drawn) | < 1 | < 1 |
| > 7.30 | COc1ccccc1-c1c[nH]c2ncc(-c3cccc(C(O)C(=O)N4CC(O)C4)c3)cc12 (stereo not drawn) | > 1 | < 1 |
| > 7.30 | COc1ccccc1-c1c[nH]c2ncc(-c3cccc(C(N)CC(=O)N(C)C)c3)cc12 (stereo not drawn) | > 1 | > 1 |
| > 7.30 | COc1ccccc1-c1c[nH]c2ncc(-c3cccc(C(O)C(=O)N(C)C)n3)cc12 (stereo not drawn) | > 1 | > 1 |
| > 7.30 | COc1ccccc1-c1c[nH]c2ncc(-c3cccc(C(O)C(=O)N(C)Cc4ccnn4C)c3)cc12 (stereo not drawn) | < 1 | < 1 |
| > 7.30 | COc1ccccc1-c1c[nH]c2ncc(-c3cccc(C(O)C(=O)N(C)CC4CCN(C)CC4)c3)cc12 (stereo not drawn) | < 1 | < 1 |
| > 7.30 | COc1ccccc1-c1n[nH]c2ncc(-c3cccc(C(C)C(=O)N4CCC(O)C4)c3)cc12 (stereo not drawn) | > 1 | > 1 |
| > 7.30 | COc1ccccc1-c1c[nH]c2ncc(-c3cccc(C(N)C(=O)N(C)CCN(C)C)c3)cc12 (stereo not drawn) | > 1 | > 1 |
| > 7.30 | CNC(C(=O)N1CCC(N(C)C)C1)c1cccc(-c2cnc3[nH]nc(-c4ccccc4OC)c3c2)c1 (stereo not drawn) | > 1 | > 1 |
| > 7.30 | COc1ccccc1-c1n[nH]c2ncc(-c3cccc(C(O)C(=O)N(C)C)c3)cc12 (stereo not drawn) | < 1 | < 1 |
